Experimental data as given in patent US20110212885A1, “OPHTHALMIC AND CONTACT LENS SOLUTIONS CONTAINING PEPTIDES AS PRESERVATIVE” (priority 2003, published 2011).
Where two headings read alike, the source gives them in different places. Non-standard residues stand in square brackets, D forms with d. Residues, ends and D or L forms follow the SMILES beside them. No end group written: not given here.

Legend:
Type in all cases: cell-based
[1] = test system: Pseudomonas aeruginosa (ATCC 9027); settings: for biocidal effect on P. aeruginosa (in words): 100 ug/mL in water; for average cfu/mL: P. aeruginosa; for lowest concentration giving complete kill of P. aeruginosa: Experiment 3, tested 100 to 1 ug/mL in water
Procedure: (§1) Peptides were tested using a conventional Disinfection Efficacy antimicrobial assay (ISO 14729), commonly used in evaluating biocidal efficacy of preservatives for use in contact lens care solutions. Briefly, a known concentration of organisms are inoculated into the test solution, and allowed to incubate for a given amount of time, after which they are neutralized to inactivate the preservative. Samples are serially diluted and plated in duplicate onto petri plates onto which growth medium is poured. The plates are incubated at 35° C. (bacteria) or 25° C. (yeast and molds) for 48 hours. The average number of colony forming units is determined on countable plates (the dilution at which between 30 to 300 cfu/plate are observed, except when colonies are observed only on the −1 dilution plates). The log reduction resulting from exposure to the test solution is calculated based on the growth of positive controls plated simultaneously. Recovery controls, to confirm that the test solution is neutralized, and viability controls are also plated.
(§2) Method: The Disinfection Efficacy test was used with the following organisms: Staphylococcus aureus (ATCC 6538), Pseudomonas aeruginosa (ATCC 9027), Serratia marcesens (ATCC 13880), Candida albicans (ATCC 10231), and Fusarium solani (ATCC 36031). The peptides were diluted in water at a concentration of 100 ug/mL (adjusted for purity). Organism cultures were prepared to result in an inoculum concentration between 10^7 and 10^8 cfu/mL. The test solutions were inoculated for a 1 hour and a 3 hour exposure period, neutralized with DEB with 0.1% SLS added, and plated in duplicate.
(§3) Method: The Disinfection Efficacy test was used as in experiment 2 using Staphylococcus aureus and Pseudomonas aeruginosa. The peptides were diluted in water at concentrations of 100, 33.3, 10, 3.33, and 1 ug/mL. The test solutions were inoculated for 1 hour, neutralized, and plated in duplicate.

[2] = test system: Staphylococcus aureus (ATCC 6538); settings: for biocidal effect on S. aureus (in words): 100 ug/mL in water; for average cfu/mL: S. aureus; for concentration giving complete kill of S. aureus: tested 100 to 1 ug/mL in water
Procedure: as §1, §2, §3

[3] = test system: Candida albicans (ATCC 10231); settings: 1 hour exposure; for biocidal effect on C. albicans (in words): 100 ug/mL in water; for average cfu/mL: C. albicans, peptide 100 ug/mL in water
Procedure: as §1
Method: Candida albicans (ATCC 10231) stock cultures were incubated and prepared to result in cell suspensions containing between 10^7 and 10^8 cfu/mL. The Disinfection Efficacy test, as described above, was used, with the following modification: Since the standard Dey-Engley broth used to neutralize preservatives was not necessarily expected to neutralize the peptide, 0.1% sodium laurel sulfate (SLS) was added to the neutralization solution. Controls confirmed that this was effective in neutralizing the peptide test solution.
as §2

[4] = test system: Fusarium solani (ATCC 36031); settings: 1 hour exposure; for biocidal effect on F. solani (in words): 100 ug/mL in water; for average cfu/mL: F. solani, peptide 100 ug/mL in water
Procedure: as §1, §2

[5] = test system: Serratia marcesens (ATCC 13880); settings: 1 hour exposure; for biocidal effect on S. marcescens (in words): 100 ug/mL in water; for average cfu/mL: S. marcescens, peptide 100 ug/mL in water
Procedure: as §1, §2

[6] = peptide 100 ug/mL in water, 1 hour exposure
[7] = T = 1 hr, Conc. 1 μg/mL in water
[8] = T = 1 hr, Conc. 3.33 μg/mL in water
[9] = T = 1 hr, Conc. 10 μg/mL in water
[10] = T = 1 hr, Conc. 33 μg/mL in water
[11] = T = 1 hr, Conc. 100 μg/mL in water

Compound | biocidal effect on P. aeruginosa (in words) ([1]; 1 hour exposure) | average cfu/mL [1, 6] | biocidal effect on S. aureus (in words) ([2]; 1 hour exposure) | average cfu/mL [2, 6] | biocidal effect on C. albicans (in words) [3] | average cfu/mL [3] | biocidal effect on F. solani (in words) [4] | average cfu/mL [4] | average cfu/mL [5] | lowest concentration giving complete kill of P. aeruginosa ([1]; 1 hour exposure) | average cfu/mL [1, 7] | average cfu/mL [1, 8] | average cfu/mL [1, 9] | average cfu/mL [1, 10] | average cfu/mL [1, 11] | average cfu/mL [2, 7] | average cfu/mL [2, 8] | average cfu/mL [2, 9] | average cfu/mL [2, 10] | average cfu/mL [2, 11] | further results
C[C@@H](N)C(=O)N[C@H](CCCCN)C(=O)N[C@H](CCCNC(=N)N)C(=O)N[C@H](Cc1c[nH]cn1)C(=O)N[C@H](Cc1c[nH]cn1)C(=O)NCC(=O)N[C@H](Cc1ccc(O)cc1)C(=O)N[C@H](CCCCN)C(=O)N[C@H](CCCNC(=N)N)C(=O)N[C@H](CCCCN)C(=O)N[C@H](Cc1ccccc1)C(=O)N[C@H](Cc1c[nH]cn1)C(N)=O [P113D] (H-[dA][dK][dR][dH][dH]G[dY][dK][dR][dK][dF][dH]-NH2; N-terminus and C-terminus assumed) | effective | 2.00E+01 cfu/mL | no effect | 4.70E+05 cfu/mL | effective | 3.30E+03 cfu/mL | effective | 6.40E+03 cfu/mL | 2.80E+05 cfu/mL | – | – | – | – | – | – | – | – | – | – | – | biocidal effect on S. marcescens (in words) [5]: no effect
AKRHHGYKRKFH-NH2 [P-113] | effective | 6.00E+01 cfu/mL | no effect | 6.10E+05 cfu/mL | effective | 5.51E+03 cfu/mL | effective | 6.00E+03 cfu/mL | 4.00E+05 cfu/mL | 3.33 µg/mL | 3.90E+02 cfu/mL | 5.00E+00 cfu/mL | 1.50E+01 cfu/mL | 0.00E+00 cfu/mL | 0.00E+00 cfu/mL | 5.95E+04 cfu/mL | 1.44E+05 cfu/mL | 2.02E+05 cfu/mL | 3.40E+05 cfu/mL | 3.80E+05 cfu/mL | effectiveness against S. aureus (in words) ([2]; Experiment 3, 1 hour exposure, 100 to 1 ug/mL in water): not effective; biocidal effect on S. marcescens (in words) [5]: no effect
FAKKFAKKFKKFAKKFAKFAFAF [D2A21] | – | 0.00E+00 cfu/mL | – | 0.00E+00 cfu/mL | – | 0.00E+00 cfu/mL | – | 0.00E+00 cfu/mL | 0.00E+00 cfu/mL | 1 µg/mL | 0.00E+00 cfu/mL | 0.00E+00 cfu/mL | 0.00E+00 cfu/mL | 0.00E+00 cfu/mL | 0.00E+00 cfu/mL | 1.12E+03 cfu/mL | 0.00E+00 cfu/mL | 1.00E+01 cfu/mL | 0.00E+00 cfu/mL | 0.00E+00 cfu/mL | concentration giving complete kill of S. aureus ([2]; Experiment 3, 1 hour exposure): 3.33 µg/mL
FKLRAKIKVRLRAKIKL [D4E1] | – | 0.00E+00 cfu/mL | – | 0.00E+00 cfu/mL | – | 0.00E+00 cfu/mL | – | 0.00E+00 cfu/mL | 0.00E+00 cfu/mL | 1 µg/mL | 1.00E+01 cfu/mL | 0.00E+00 cfu/mL | 0.00E+00 cfu/mL | 5.00E+00 cfu/mL | 0.00E+00 cfu/mL | 5.00E+00 cfu/mL | 0.00E+00 cfu/mL | 0.00E+00 cfu/mL | 0.00E+00 cfu/mL | 0.00E+00 cfu/mL | concentration giving complete kill of S. aureus ([2]; Experiment 3, 1 hour exposure): 1 µg/mL
